Data set [1] has as its system 3T3-L1 mouse pre-adipocytes. The data set can be described thus: Stimulation of adipocyte differentiation. Type of data set: cell-based. Conditions: 10 μM, 3T3-L1, vs 0.01% DMSO control and 10 μM troglitazone. As to the method:
3T3-L1 mouse pre-adipocytes cultured in a DMEM medium containing 10% FBS were pipetted into a multi-well plate in a cell count of 1×10^6 cells per well, and then further cultured for 5 hours. To the cultured cells, 10 μM of macelignan was added and then left for 24 hours. Adipocyte differentiation was induced by substituting the medium of the cultured cells with MDI (0.5 mM 3-isobutyl-1-methylxanthine, 0.5 uM dexamethasone, 10 ug/ml insulin) medium (Am. J. Physiol. Cell Physiol., 280: C807-C813, 2001). The shape of the cells was observed by an optical microscope two day after the substitution of MDI medium.

Data set [2] concerns target genes of PPARα (CD36, ACO, CPT-1). The data set can be described thus: Expression of target genes of PPARα in liver tissue of obesity/diabetes mouse model. The settings on record: 5, 10 and 25 mg/kg oral, 14 days, db/db mice, p<0.05 vs control. Type of data set: in vivo. As to the method:
Liver tissue was removed from the test groups and the controls treated by oral administration in Examples 5˜8. The liver tissue was homogenized in liquid nitrogen and the total RNA was isolated from the tissues by using TRIZOL (Invitrogen, USA). The total RNA isolated as described above was determined and cDNA was synthesized by using reverse transcriptase at 42° C. for 20 minutes with same amount of RNA. The cDNA was subjected to RT-PCR by repeating 30 cycles of 95° C./1 minute, 56° C./30 seconds and 72° C./2 minutes with the following primers and Taq polymerase: primers for CD36 amplification (SEQ ID NO: 5 and SEQ ID NO: 6), primers for ACO amplification (SEQ ID NO: 11 and SEQ ID NO: 12), and primers for CPT-1 amplification (SEQ ID NO: 7 and SEQ ID NO: 8). Expression of the genes was determined by real-time PCR.

A short description of another data set: Oral toxicity test. Conditions: rat, in vivo; oral administration, rats; read-out: lethal dose 50% (LD50).
Data set [3] has as its system target genes of PPARγ (LPL, PEPCK). The data set can be described thus: Expression of target genes of PPARγ in 3T3-L1 pre-adipocytes (RT-PCR). Type of data set: cell-based, mouse. Conditions: 3T3-L1 cells, 24 hours, then MDI medium two days, vs control. As to the method: 3T3-L1 mouse pre-adipocytes (ATCC CL-173) cultured in a DMEM medium containing 10% FBS were pipetted into a multi-well plate in a cell count of 1×10^6 cells per well, and then further cultured for 5 hours. To the medium of the cultured cells, 10 μM of macelignan was added and then left for 24 hours. Adipocyte differentiation was induced by substituting the medium of the cultured cells with MDI (0.5 mM 3-isobutyl-1-methylxanthine, 0.5 uM dexamethasone, 10 ug/ml insulin) medium (Am. J. Physiol. Cell Physiol., 280: C807-C813, 2001). Cells were collected two days after the substitution of MDI medium, and the total RNA was isolated by using TRIZOL (Invitrogen, USA). The total RNA isolated as described above was determined, and cDNA was synthesized by using reverse transcriptase at 42° C. for 20 minutes with same amount of RNA. The cDNA was subjected to RT-PCR by repeating 30 cycles of 95° C./1 minute, 56° C./30 seconds and 72° C./2 minutes with the following primers and Taq polymerase: primers for LPL amplification (SEQ ID NO: 13([…]) and SEQ ID NO: 14([…])), and primers for PEPCK amplification (SEQ ID NO: 15(CAGGCGGCTGAA GAAGTATGA) and SEQ ID NO: 16([…])).

The target in a further data set is T1, human PPARα (Homo sapiens, UniProt Q07869).
T1 construct: expressed in transfected cells; host or cells: COS-7 monkey kidney cells (ATCC CRL-1651)
T1 sequence (Q07869 192-468 limits assumed): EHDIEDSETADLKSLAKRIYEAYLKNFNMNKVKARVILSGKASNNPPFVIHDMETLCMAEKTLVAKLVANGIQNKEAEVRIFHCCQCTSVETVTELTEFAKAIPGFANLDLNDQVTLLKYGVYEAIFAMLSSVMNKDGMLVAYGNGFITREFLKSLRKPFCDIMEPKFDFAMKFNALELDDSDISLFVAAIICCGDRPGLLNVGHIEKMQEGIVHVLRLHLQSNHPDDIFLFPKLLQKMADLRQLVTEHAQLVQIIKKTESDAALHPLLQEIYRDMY
The data set can be described thus: PPARα activation, PPRE-controlled luciferase reporter in transfected COS-7 cells. Type of data set: cell-based. Conditions: 24 hours. As to the method:
To investigate whether macelignan acts as a ligand of PPAR or not, it was tested according to known method (Cell, 68: 879-887, 1992; J. Biol. Chem., 272: 25252-25259, 1997) using a plasmid expressing PPAR and a vector having PPRE-controlled luciferase genes.
Activation of luciferase expression was measured by transfecting COS-7 monkey kidney cells (ATCC CRL-1651) with the PPARα plasmid and pFR-luciferase vector (Stratagene, USA), and then by treating the transfected cells with macelignan isolated from Example 1 for 24 hours. The PPARα plasmid was obtained by isolating polynucleotide encoding the amino acid sequence of amino acids […] (i.e. PPARα ligand-bound domain of the total amino acid sequence of human PPARα (Genbank Acession No. S74349)) with the primers of SEQ ID NO: 1 ([…]) and SEQ ID NO: 2 (TGGGGTACCTGGCTGAT) by RT-PCR. Then, the polynucleotide was cloned between the restriction enzyme sites of BamHI and KpnI of pFA vector (Stratagene, USA). Herein, mRNA used as the template in RT-PCR was obtained by separating the total RNA in cultured Hep G2 (ATCC HB-8065) human liver cells by using TRIZOL (Invitrogen, USA). RT-PCR was performed by synthesizing cDNA using reverse transcriptase at 42° C. for 60 minutes, and 30 cycles of 1 minute at 95° C., 30 seconds at 54° C. and 2 minutes at 72° C. using Taq polymerase. At this time, the test groups treated with different concentrations (1, 5, 10 and 25 μM) of macelignan according to the present invention were compared to the control treated with 0.01% DMSO, and to the groups treated with different concentrations (1, 5, 10 and 25 μM) of Wy-14643 (Sigma, USA), a compound known as a PPARα ligand.
In general terms: Reporter assays use an easily measured gene product as a stand-in for the process of interest.

One may read the LD50 as the dose expected to kill half of the subjects tested. Regarding `COc1cc(C[C@H](C)[C@H](C)Cc2ccc3c(c2)OCO3)ccc1O` (single isomer, unassigned) [macelignan], in data set [1], the adipocyte differentiation result was “adipocyte differentiation was stimulated”. For the same compound, the “mRNA expression of CD36, ACO and CPT-1 in liver tissue” value in data set [2] is given as “significantly increased”. In the data set “Oral toxicity test”, the LD50 was at least 2000 mg/kg. For the same compound, the “mRNA expression of LPL and PEPCK” value in data set [3] is reported as “significantly increased”. Further, the “luciferase activity higher than the control (PPARα)” value on human PPARα (25 μM, control 0.01% DMSO) is “about 14 times”. For the same compound, the PPARα activity entry at human PPARα (1, 5, 10 and 25 μM, p<0.01 vs control) is reported as “increased PPARα activity in a concentration-dependent manner”.

These data come from patent publication US7902254B1, “Method for treating conditions mediated by PPAR using macelignan” (Newtree Co., Ltd., priority 2005, dated 2011).
